From patent publication US7638631B2, “Methylene dipiperidine derivatives” (Glaxo Group Limited, priority 2004, dated 2009)

Tests used:
human H1 receptor = biological target: T1, human H1 receptor (Homo sapiens, UniProt P35367); assay: Histamine H1 functional antagonist assay (FLIPR, Chinese hamster ovary cells); format: cell-based; conditions: H1 cell line, FLIPR fluorescence, histamine at EC80; Cheng-Prusoff; averages of a number of experiments; read-out: functional pKi (fpKi), histamine H1 functional antagonist assay (converted)
T1 construct: expressed in transfected cells
Protocol: (iii) Generation of Histamine H1 Cell Line
The human H1 receptor was cloned using known procedures described in the literature [Biochem. Biophys. Res. Commun. 1994, 201(2), 894]. Chinese hamster ovary cells stably expressing the human Hi receptor were generated according to known procedures described in the literature [Br. J. Pharmacol. 1996, 117(6), 1071].
(II) Histamine H1 Functional Antagonist Assay
The histamine H1 cell line was seeded into non-coated black-walled clear bottom 384-well tissue culture plates in alpha minimum essential medium (Gibco/Invitrogen, cat no. 22561-021), supplemented with 10% dialysed foetal calf serum (Gibco/Invitrogen cat no. 12480-021) and 2 mM L-glutamine (Gibco/Invitrogen cat no 25030-024) and maintained overnight at 5% CO2, 37° C.
Excess medium was removed from each well to leave 10 μl. 30 μl loading dye (250 μM Brilliant Black, 2 μM Fluo-4 diluted in Tyrodes buffer+probenecid (145 mM NaCl, 2.5 mM KCl, 10 mM HEPES, 10 mM D-glucose, 1.2 mM MgCl2, 1.5 mM CaCl2, 2.5 mM probenecid, pH adjusted to 7.40 with NaOH 1.0 M)) was added to each well and the plates were incubated for 60 minutes at 5% CO2, 37° C.
10 μl of test compound, diluted to the required concentration in Tyrodes buffer+probenecid (or 10 μl Tyrodes buffer+probenecid as a control) was added to each well and the plate incubated for 30 min at 37° C., 5% CO2. The plates were then placed into a FLIPR™ (Molecular Devices, UK) to monitor cell fluorescence (λex=488 nm, λEM=540 nm) in the manner described in Sullivan et al. (In: Lambert DG (ed.), Calcium Signaling Protocols, New Jersey: Humana Press, 1999, 125-136) before and after the addition of 10 μl histamine at a concentration that results in the final assay concentration of histamine being EC80.
Functional antagonism is indicated by a suppression of histamine induced increase in fluorescence, as measured by the FLIPR™ system (Molecular Devices). By means of concentration effect curves, functional affinities are determined using standard pharmacological mathematical analysis.

histamine H3 receptor [1] = biological target: T2, histamine H3 receptor (Homo sapiens, UniProt Q9Y5N1); assay: Histamine H3 functional antagonist assay (method A), [35S]-GTPγS SPA on membranes; format: biochemical; conditions: membrane from cultured H3 cells, histamine at EC80, averages of a number of experiments, read-out: functional pKi (fpKi), histamine H3 functional antagonist assay (method A) (converted)
T2 construct: expressed in transfected cells; host or cells: CHO K1 cells carrying pSwitch, transfected with pGeneH3, mifepristone-induced; clone 3H3; membranes
Description: (§1) A membrane preparation containing histamine H3 receptors may be prepared in accordance with the following procedures:
(§2) DNA encoding the human histamine H3 gene (Huvar, A. et al. (1999) Mol. Pharmacol. 55(6), 1101-1107) was cloned into a holding vector, pCDNA3.1 TOPO (InVitrogen) and its cDNA was isolated from this vector by restriction digestion of plasmid DNA with the enzymes BamH1 and Not-1 and ligated into the inducible expression vector pGene (InVitrogen) digested with the same enzymes. The GeneSwitch™ system (a system where in transgene expression is switched off in the absence of an inducer and switched on in the presence of an inducer) was performed as described in U.S. Pat. Nos.: 5,364,791; 5,874,534; and 5,935,934. Ligated DNA was transformed into competent DH5α E. coli host bacterial cells and plated onto Luria Broth (LB) agar containing Zeocin™ (an antibiotic which allows the selection of cells expressing the sh ble gene which is present on pGene and pSwitch) at 50 μg ml^−1. Colonies containing the re-ligated plasmid were identified by restriction analysis. DNA for transfection into mammalian cells was prepared from 250 ml cultures of the host bacterium containing the pGeneH3 plasmid and isolated using a DNA preparation kit (Qiagen Midi-Prep) as per manufacturers guidelines (Qiagen). CHO K1 cells previously transfected with the pSwitch regulatory plasmid (InVitrogen) were seeded at 2×10e6 cells per T75 flask in Complete Medium, containing Hams F12 (GIBCOBRL, Life Technologies) medium supplemented with 10% v/v dialysed foetal bovine serum, L-glutamine, and hygromycin (100 μg ml^−1), 24 hours prior to use. Plasmid DNA was transfected into the cells using Lipofectamine plus according to the manufacturers guidelines (InVitrogen). 48 hours post transfection cells were placed into complete medium supplemented with 500 μg ml^−1 Zeocin™.
10-14 days post selection 10 nM Mifepristone (InVitrogen), was added to the culture medium to induce the expression of the receptor. 18 hours post induction cells were detached from the flask using ethylenediamine tetra-acetic acid (EDTA; 1:5000; InVitrogen), following several washes with phosphate buffered saline pH 7.4 and resuspended in Sorting Medium containing Minimum Essential Medium (MEM), without phenol red, and supplemented with Earles salts and 3% Foetal Clone II (Hyclone). […] Receptor bound antibody was detected by incubation of the cells for 60 minutes on ice with a goat anti rabbit antibody, conjugated with Alexa 488 fluorescence marker (Molecular Probes). Following two further washes with Sorting Medium, cells were filtered through a 50 μm Filcon™ (BD Biosciences) and then analysed on a FACS Vantage SE Flow Cytometer fitted with an Automatic Cell Deposition Unit. […]

histamine H3 receptor [2] = biological target: T2, histamine H3 receptor; assay: Histamine H3 functional antagonist assay (method B), [35S]-GTPγS SPA on membranes; format: biochemical; conditions: membrane from cultured H3 cells, histamine at EC80, averages of a number of experiments, read-out: functional pKi (fpKi), histamine H3 functional antagonist assay (method B) (converted)
Description: as §1, §2
10-14 days post selection 10 nM Mifepristone (InVitrogen), was added to the culture medium to induce the expression of the receptor. 18 hours post induction cells were detached from the flask using ethylenediamine tetra-acetic acid (EDTA; 1:5000; InVitrogen), following several washes with phosphate buffered saline pH 7.4 and resuspended in Sorting Medium containing Minimum Essential Medium (MEM), without phenol red, and supplemented with Earles salts and 3% Foetal Clone II (Hyclone). Approximately 1×10e7 cells were examined for receptor expression by staining with a rabbit polyclonal antibody, 4a, raised against the N-terminal domain of the histamine H3 receptor, incubated on ice for 60 minutes, followed by two washes in sorting medium. Receptor bound antibody was detected by incubation of the cells for 60 minutes on ice with a goat anti rabbit antibody, conjugated with Alexa 488 fluorescence marker (Molecular Probes). Following two further washes with Sorting Medium, cells were filtered through a 50 μm Filcon™ (BD Biosciences) and then analysed on a FACS Vantage SE Flow Cytometer fitted with an Automatic Cell Deposition Unit. Control cells were non-induced cells treated in a similar manner. Positively stained cells were sorted as single cells into 96-well plates, containing Complete Medium containing 500 μg ml^−1 Zeocin™ and allowed to expand before reanalysis for receptor expression via antibody and ligand binding studies. One clone, 3H3, was selected for membrane preparation.
All steps of the protocol are carried out at 4° C. and with pre-cooled reagents. The cell pellet is resuspended in 10 volumes of homogenisation buffer (50 mM N-2-hydroxyethylpiperazine-N′-2-ethanesulfonic acid (HEPES), 1 mM ethylenediamine tetra-acetic acid (EDTA), pH 7.4 with KOH, supplemented with 10e-6M leupeptin (acetyl-leucyl-leucyl-arginal; Sigma L2884), 25 μg/ml bacitracin (Sigma B0125), 1 mM phenylmethylsulfonyl fluoride (PMSF) and 2×10e-6M pepstain A (Sigma)). The cells are then homogenised by 2×15 second bursts in a 1 liter glass Waring blender, followed by centrifugation at 500 g for 20 minutes. […]

T2 sequence (Q9Y5N1 whole entry): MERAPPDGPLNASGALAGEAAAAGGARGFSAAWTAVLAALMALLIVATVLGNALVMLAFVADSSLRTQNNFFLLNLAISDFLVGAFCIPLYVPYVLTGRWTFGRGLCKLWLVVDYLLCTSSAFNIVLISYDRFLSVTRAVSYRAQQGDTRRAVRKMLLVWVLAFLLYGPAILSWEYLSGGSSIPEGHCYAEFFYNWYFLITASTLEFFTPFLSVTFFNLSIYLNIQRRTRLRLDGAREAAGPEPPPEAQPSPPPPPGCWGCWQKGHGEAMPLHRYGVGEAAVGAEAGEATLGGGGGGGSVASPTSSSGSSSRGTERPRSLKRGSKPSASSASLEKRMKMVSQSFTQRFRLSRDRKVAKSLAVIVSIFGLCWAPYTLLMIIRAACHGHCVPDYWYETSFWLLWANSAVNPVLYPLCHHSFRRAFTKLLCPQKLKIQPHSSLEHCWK
T1 sequence (P35367 whole entry): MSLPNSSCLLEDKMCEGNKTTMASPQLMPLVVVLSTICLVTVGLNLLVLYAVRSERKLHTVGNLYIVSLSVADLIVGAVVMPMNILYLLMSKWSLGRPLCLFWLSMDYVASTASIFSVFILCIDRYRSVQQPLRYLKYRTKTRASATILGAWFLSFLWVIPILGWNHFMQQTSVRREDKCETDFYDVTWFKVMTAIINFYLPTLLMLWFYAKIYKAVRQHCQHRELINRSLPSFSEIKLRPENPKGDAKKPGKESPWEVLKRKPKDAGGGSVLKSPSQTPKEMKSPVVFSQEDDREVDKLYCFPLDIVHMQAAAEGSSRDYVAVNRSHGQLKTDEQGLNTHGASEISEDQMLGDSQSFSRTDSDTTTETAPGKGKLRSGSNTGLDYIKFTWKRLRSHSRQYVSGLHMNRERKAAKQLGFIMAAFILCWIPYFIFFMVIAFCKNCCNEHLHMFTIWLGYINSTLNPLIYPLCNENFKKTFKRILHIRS

| Ki (human H1 receptor) | Ki (histamine H3 receptor [1]) | Ki (histamine H3 receptor [2]) | Compound |
| --- | --- | --- | --- |
| > 1000 nM | ≤ 1 nM | – | CC(C)NC(=O)c1cnc(N2CCC(CC3CCN(C4CCC4)CC3)CC2)cn1 [Example E6, 5-{4-[(1-Cyclobutyl-4-piperidinyl)methyl]-1-piperidinyl}-N-(1-methylethyl)-2-pyrazinecarboxamide] |
| – | ≤ 10 nM | – | CC(C)NC(=O)c1cnc(N2CCC(CC3CCN(C(C)C)CC3)CC2)cn1 [Example E7] |
| – | – | ≤ 1 nM | CNC(=O)c1cnc(N2CCC(CC3CCN(C4CCC4)CC3)CC2)cn1 [Example E8] |
| > 1000 nM | – | ≤ 1 nM | CCNC(=O)c1cnc(N2CCC(CC3CCN(C4CCC4)CC3)CC2)cn1 [Example E9, 5-{4-[(1-cyclobutyl-4-piperidinyl)methyl]-1-piperidinyl}-N-ethyl-2-pyrazinecarboxamide] |
| > 1000 nM | – | ≤ 1 nM | CNC(=O)c1ccc(N2CCC(CC3CCN(C4CCC4)CC3)CC2)cn1 [Example E11, 5-{4-[(1-Cyclobutyl-4-piperidinyl)methyl]-1-piperidinyl}-N-methyl-2-pyridinecarboxamide] |
| – | ≤ 1 nM | ≤ 1 nM | CNC(=O)c1ccc(N2CCC(CC3CCN(C(C)C)CC3)CC2)cn1 [Example E12, N-Methyl-5-(4-{[1-(1-methylethyl)-4-piperidinyl]methyl}-1-piperidinyl)-2-pyridinecarboxamide] |
| – | – | ≤ 1 nM | Cc1noc(-c2ccc(N3CCC(CC4CCN(C5CCC5)CC4)CC3)cn2)n1 [Example E17, 5-{4-[(1-cyclobutyl-4-piperidinyl)methyl]-1-piperidinyl}-2-(3-methyl-1,2,4-oxadiazol-5-yl)pyridine] |
| – | – | ≤ 0.316 nM | N#Cc1ccc(N2CCC(CC3CCN(C4CCC4)CC3)CC2)cn1 [Example E22, 5-{4-[(1-Cyclobutyl-4-piperidinyl)methyl]-1-piperidinyl}-2-pyridinecarbonitrile] |
| – | – | ≤ 1 nM | CC(=O)c1ccc(N2CCC(CC3CCN(C(C)C)CC3)CC2)cn1 [Example E23, 1-{[5-(4-[1-(1-Methylethyl)-4-piperidinyl]methyl}-1-piperidinyl)-2-pyridinyl]ethanone] |
| – | – | ≤ 0.316 nM | CC(=O)c1ccc(N2CCC(CC3CCN(C4CCC4)CC3)CC2)cn1 [Example E24, 1-(5-{4-[(1-Cyclobutyl-4-piperidinyl)methyl]-1-piperidinyl}-2-pyridinyl)ethanone] |
| – | – | ≤ 1 nM | CC(=O)c1ccc(N2CCC(CC3CCN(C4CCC4)CC3)CC2)cc1 [Example E25, 1-(4-{4-[(1-Cyclobutyl-4-piperidinyl)methyl]-1-piperidinyl}phenyl)ethanone] |
| – | – | ≤ 1 nM | CC(=O)c1ccc(N2CCC(CC3CCN(C4CCC4)CC3)CC2)nc1 [Example E29] |
| – | – | ≤ 1 nM | O=C(c1ccc(N2CCC(CC3CCN(C4CCC4)CC3)CC2)cc1)C(F)(F)F [Example E31] |
| – | – | ≤ 1 nM | FC(F)(F)c1ccc(N2CCC(CC3CCN(C4CCC4)CC3)CC2)nn1 [Example E34] |

More lines, now with the values behind:

| Compound | Ki (human H1 receptor) | Ki (histamine H3 receptor [1]) | Ki (histamine H3 receptor [2]) |
| --- | --- | --- | --- |
| Cc1noc(-c2ccc(N3CCC(CC4CCN(C(C)C)CC4)CC3)cc2)n1 [Example E13, 1-(1-Methylethyl)-4-({1-[4-(3-methyl-1,2,4-oxadiazol-5-yl)phenyl]-4-piperidinyl}methyl)piperidine] | – | ≤ 0.316 nM | – |
| Cc1noc(-c2ccc(N3CCC(CC4CCN(C(C)C)CC4)CC3)c(F)c2)n1 [Example E14, 1-[2-Fluoro-4-(3-methyl-1,2,4-oxadiazol-5-yl)phenyl]-4-{[1-(1-methylethyl)-4-piperidinyl]methyl}piperidine] | – | – | ≤ 1 nM |
| Cc1noc(-c2ccc(N3CCC(CC4CCN(C(C)C)CC4)CC3)cn2)n1 [Example E15, 5-(4-{[1-(1-Methylethyl)-4-piperidinyl]methyl}-1-piperidinyl)-2-(3-methyl-1,2,4-oxadiazol-5-yl)pyridine] | – | – | ≤ 1 nM |
| Cc1noc(-c2ccc(N3CCC(CC4CCN(C(C)C)CC4)CC3)cc2F)n1 [Example E16, 1-[3-fluoro-4-(3-methyl-1,2,4-oxadiazol-5-yl)phenyl]-4-{[1-(1-methylethyl)-4-piperidinyl]methyl}piperidine] | – | – | ≤ 0.316 nM |
| CCN1CCC(CC2CCN(c3ccc(-c4nc(C)no4)cc3)CC2)CC1 [Example E18] | – | – | ≤ 0.316 nM |
| CC(C)N1CCC(CC2CCN(c3ccc(C#N)nc3)CC2)CC1 [Example E21, 5-(4-{[1-(1-Methylethyl)-4-piperidinyl]methyl}-1-piperidinyl)-2-pyridinecarbonitrile] | – | – | ≤ 1 nM |
| CC(=O)c1ccc(N2CCC(CC3CCN(C(C)C)CC3)CC2)cc1 [Example E26] | – | – | ≤ 1 nM |
| CCN1CCC(CC2CCN(c3ccc(C(C)=O)cc3)CC2)CC1 [Example E27] | – | – | ≤ 1 nM |
| CC(C)N1CCC(CC2CCN(c3cnc(C(F)(F)F)nc3)CC2)CC1 [Example E36, 5-(4-{[1-(1-Methylethyl)-4-piperidinyl]methyl}-1-piperidinyl)-2-(trifluoromethyl)pyrimidine] | > 1000 nM | – | ≤ 10 nM |
